What was measured:
Type in all cases: in vivo
[1] = system: galium (catchweed bedstraw, Galium aparine); test: Test A postemergence, galium; conditions: Galium, post-emergence, 240 h, Postemergence, 0 to 100 scale (0 no effect, 100 complete control), read-out: Plant response rating, Galium
Procedure, shortened: (§1)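 Formulated with a surfactant in a non-phytotoxic solvent, compounds are applied to loam–sand pots, either to bare soil immediately after seeding (preemergence) or to seedlings of 2 to 10 cm bearing one to two leaves (postemergence).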

[2] = system: ragweed (common ragweed, Ambrosia artemisiifolia); test: Test A postemergence, ragweed; conditions: Ambrosia artemisiifolia, post-emergence, 240 h, Postemergence, 0 to 100 scale (0 no effect, 100 complete control), read-out: Plant response rating, Ragweed
Procedure, shortened: (§2)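 Greenhouse pot test in a loam–sand blend; compounds delivered in a non-phytotoxic solvent carrying a surfactant, applied either as a directed spray to soil at seeding or over seedlings 2 to 10 cm high with one to two leaves.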

[3] = system: Ryegrass, Italian (Italian ryegrass, Lolium multiflorum); test: Test A preemergence, Ryegrass, Italian; conditions: Lolium multiflorum, pre-emergence, 240 h, Preemergence
Procedure, shortened: as §2

[4] = system: wheat (Triticum aestivum); test: Test A postemergence, wheat; conditions: Triticum aestivum, post-emergence, 240 h, Postemergence, 0 to 100 scale (0 no effect, 100 complete control), read-out: Plant response rating, Wheat
Procedure, shortened: as §1

[5] = 500 g ai/ha, visual injury approx. 10 days

**Q.** How did the pest or weed control at 125 g/ha ([1]; 125 g ai/ha) turn out when Cc1cc(C)c(C(=O)N2CCC(F)(F)CC2)cc1NS(=O)(=O)C(F)(F)F [Compound 241, N-[5-[(4,4-Difluoro-1-piperidinyl)carbonyl]-2,4-dimethylphenyl]-1,1,1-trifluoromethanesulfonamide] was run?
**A.** 80%

**Q.** What about the pest or weed control at 500 g/ha [1, 5] of the same compound?
**A.** 90%

**Q.** And the pest or weed control at 125 g/ha ([2]; 125 g ai/ha)?
**A.** 40%

**Q.** And the pest or weed control at 500 g/ha [2, 5]?
**A.** 80%

**Q.** What about the pest or weed control at 125 g/ha ([3]; 125 g ai/ha, visual injury, 0 to 100 scale (0 no effect, 100 complete control), approx. 10 days, read-out: Plant response rating, Ryegrass, Italian) of the same compound?
**A.** 70%

**Q.** What about the pest or weed control at 500 g/ha ([3]; 500 g ai/ha, visual injury on 0 to 100 scale (0 no effect, 100 complete control), approximately 10 days, read-out: Ryegrass, Italian plant response rating) of the same compound?
**A.** 100%

**Q.** What about the plant injury at 125 g/ha ([4]; 125 g ai/ha) of the same compound?
**A.** 30%

**Q.** What about the plant injury at 500 g/ha [4, 5] of the same compound?
**A.** 70%
